Reference: patent US7056506B2, “Methods for detecting and inhibiting angiogenesis” (The Regents of the University of California, priority 1998, dated 2006)
Entries after “also recorded” stand apart in the source; their conditions may differ.

What was measured:
α5^+ HT29 cells = assay: Cell adhesion assay, adhesion to fibronectin; format: cell-based, human
Source text: (§1) HT29 integrin α5β1^+ cells, integrin α5β1^− colon carcinoma cells (Varner et al., Mol. Biol. Cell 6:725–740 (1995)), and chick embryo fibroblasts (CEF's) were maintained in DMEM high glucose supplemented with 10% fetal bovine serum (FBS) and gentamycin. Human umbilical vein endothelial cells (HUVEC's) were maintained in M199 medium containing sodium bicarbonate, HEPES, heparin, endothelial cell growth supplement, 20% FBS and gentamycin. Culture media and reagents were from Irvine Scientific (Irvine, Calif.).
(§2) The wells of 48 well culture dishes (Costar, Inc.) were coated with 1 μg/ml vitronectin, 2 μg/ml fibronectin (chick embryo fibroblasts and HUVEC's) or 10 μg/ml fibronectin (HT29-α5^+ cells) for 1 hr at 37° C., then blocked with 2% heat denatured BSA in PBS for 1 hr. Fifty thousand cells in 250 μl of adhesion buffer were added to triplicate wells containing 250 μl of a solution of 50 μg/ml of an anti-α5β1 function blocking antibody (NKI-SAM-1, JBS5 or IIA1), 50 μg/ml of an anti-α5β1 non-function blocking antibody (HA5 or VC5; Pharmingen, Inc.; San Diego Calif.), 10 μM cyclic peptides (Koivunen et al., J. Biol. Chem. 268:20205–20210 (1993); Koivunen et al., J. Cell Biol. 124:373380 (1994)), 0–10 μM SJ749 ((S)-2-{(2,4,6-trimethylphenyl)sulfonyl}amino-3{7-benzyloxycarbonyl-8-(2-pyridinylaminomethyl)-1-oxa-2,7-diazaspiro-{4,4}-non-2-en-3-yl}carbonylamino}propionic acid)), 50 μg/ml of LM609, an anti-αVβ3 function blocking antibody, 50 μg/ml P4C10, an anti-β1 function blocking antibody, 50 μg/ml of an anti-fibronectin cell binding domain monoclonal antibody or 50 μg/ml of an anti-fibronectin N-terminus monoclonal antibody in adhesion buffer (HEPES buffered Hanks balanced salt solution, HBSS, containing 1% BSA, 2 mM MgCl2, 2 mM CaCl2 and 0.2 mM MnCl2).
Cells were allowed to adhere to dishes for 20 min at 37° C. Nonadherent cells were removed by washing each well four times with 500 μl of warm adhesion buffer. […] Crystal violet was extracted by incubation for 15 min in 10% acetic acid and absorbance at 562 nm determined as an indicator of number of cells bound. […]

[1] = test system: Human umbilical vein endothelial cells (HUVEC's); assay: Cell adhesion assay, adhesion to fibronectin; format: cell-based
Source text: as §1, §2
(§3) Cells were allowed to adhere to dishes for 20 min at 37° C. Nonadherent cells were removed by washing each well four times with 500 μl of warm adhesion buffer. Adherent cells were then fixed for 15 min with 3.7% paraformaldehyde in PBS and stained with a 2% crystal violet solution. After extensive water washing to remove excess crystal violet, plates were dried overnight. Crystal violet was extracted by incubation for 15 min in 10% acetic acid and absorbance at 562 nm determined as an indicator of number of cells bound. Each experiment was performed in triplicate, with triplicate samples per condition.

[2] = test system: chick embryo fibroblasts (CEF's); assay: Cell adhesion assay, adhesion to fibronectin; format: cell-based
Source text: as §1, §2, §3

[3] = test system: α5^+ HT29 colon carcinoma cells, CEF's and HUVEC's; assay: Cell adhesion assay, attachment to vitronectin; format: cell-based; conditions: vitronectin coating
Source text: as §1
The wells of 48 well culture dishes (Costar, Inc.) were coated with 1 μg/ml vitronectin, 2 μg/ml fibronectin (chick embryo fibroblasts and HUVEC's) or 10 μg/ml fibronectin (HT29-α5^+ cells) for 1 hr at 37° C., then blocked with 2% heat denatured BSA in PBS for 1 hr. […]
Cells were allowed to adhere to dishes for 20 min at 37° C. […] Crystal violet was extracted by incubation for 15 min in 10% acetic acid and absorbance at 562 nm determined as an indicator of number of cells bound. […]

HUVEC's = assay: Cell migration assay on fibronectin; format: cell-based, human
Description: The lower side of 8 μm pore transwell inserts (Costar, Inc.) were coated with 2 μg/ml of fibronectin, collagen (Collaborative Biomedical Products; Bedford Mass.) or no protein for 1 hr and were blocked with 2% BSA in PBS for 1 hr. The inserts then were placed into 24 well culture dishes containing 500 μl migration buffer in the lower chamber. Twenty-five thousand HUVEC's in 50 μl of migration buffer (HEPES buffered M199 medium containing 1% BSA, 2 mM MgCl2, 2 mM CaCl2 and 0.2 mM MnCl2) were added to the upper chamber of duplicate inserts containing 50 μl of a solution of 50 μg/ml of anti-α5β1 function blocking antibody (NKI-SAM-1, JBS5 or IIA1), 50 μg/ml of anti-α5β1 non-function blocking antibody (HA5 or VC5), or 50 μg/ml of LM609 (an anti-αVβ3 function blocking antibody) in migration buffer, or migration buffer alone.
Cells were allowed to migrate from the upper to the lower chamber for 4 hr at 37° C. Nonmigratory cells were removed from the upper surface by wiping the upper side with an absorbant tip, and cells that had migrated to the lower side of the transwell insert were fixed for 15 min with 3.7% paraformaldehyde in PBS, then stained with a 2% crystal violet solution. After extensive water washing to remove excess crystal violet, the number of cells that had migrated were counted in three representative high power (200×) fields per insert. […]

[4] = test system: bFGF-induced angiogenesis on the chick CAM; assay: In ovo chick CAM angiogenesis assay, bFGF stimulated; format: in vivo; conditions: bFGF stimulated CAM
Source text: (§4) Ten day old embryonated chicken eggs (McIntyre Poultry; Ramona Calif.) were candled to illuminate blood vessels under the shell and an area with a minimum of small blood vessels is identified. The CAM was dropped away from the eggshell in this area by grinding a small hole in the mineralized shell and applying pressure to the underlying inner shell membrane. This procedure caused an air pocket to shift from the wide end of the egg to the identified area and forcing a circular region of the CAM approximately 2 cm in diameter to drop away from the shell. A window was cut in the egg shell and a cortisone acetate pre-treated filter disc 5 mm in diameter that had been saturated in 1 μg/ml bFGF, VEGF, TNFα, IL-8 (Genzyme, Inc.; Cambridge Mass.) or saline was placed on the CAM. The window in the shell was sealed with adhesive tape and the egg was incubated for four days.
(§5) Anti-fibronectin antibodies (25 μg in 25 μl) also were applied topically to the CAM.
(§6) Fibronectin, vitronectin and fibronectin fragments (59 pmol in a final volume of 25 μl) were applied to stimulated or unstimulated CAM's. Peptide or small molecule antagonists of α5β1 (at a final serum concentration of 0–25 μM) also were injected intravenously into the chick circulation 24 hr later. CAM's were harvested on the fourth day of stimulation. Blood vessel branch points in the 5 mm filter disk area were counted at 30× magnification in a blinded fashion as a size-independent quantitative indicator of vascular sprouting in response to growth factors. Angiogenesis is characterized by the sprouting of new vessels in response to growth factors. Thus, counting of blood vessel branch points is a useful quantitative means of obtaining an angiogenic index (Brooks et al., In “Methods in Molecular Biology” (Humana Press 1999). At least ten embryos were used per treatment group. Each experiment was performed a minimum of three times.
(§7) Data was evaluated in terms of average number of blood vessel branch points per treatment group +/−standard error of measurement . Statistical analyses were performed using Student's t-test. Representative CAMS from each treatment group were photographed at 10X magnification. In some cases, CAM tissue excised from the egg was frozen in OCT (Baxter; McGraw Park Ill.) in liquid nitrogen, cut into 5 μm sections, air dried and processed for immunohistochemical analysis as described in Example I, except without fixation.

[5] = test system: VEGF-induced angiogenesis on the chick CAM; assay: In ovo chick CAM angiogenesis assay, VEGF stimulated; format: in vivo; conditions: VEGF stimulated CAM
Source text: as §4, §5, §6, §7

integrin α5β1 = molecular target: T1, integrin α5β1 (Homo sapiens, UniProt P05556+P08648); assay: Integrin receptor ligand binding assay (biotinylated fibronectin); conditions: fibronectin as ligand
T1 construct: Integrin αVβ3 and α5β1 receptor purified from human placenta were obtained from Chemicon International; purchased Chemicon International; host or cells: purified from human placenta (natural tissue)
T1 sequence (P08648 42-894 limits assumed): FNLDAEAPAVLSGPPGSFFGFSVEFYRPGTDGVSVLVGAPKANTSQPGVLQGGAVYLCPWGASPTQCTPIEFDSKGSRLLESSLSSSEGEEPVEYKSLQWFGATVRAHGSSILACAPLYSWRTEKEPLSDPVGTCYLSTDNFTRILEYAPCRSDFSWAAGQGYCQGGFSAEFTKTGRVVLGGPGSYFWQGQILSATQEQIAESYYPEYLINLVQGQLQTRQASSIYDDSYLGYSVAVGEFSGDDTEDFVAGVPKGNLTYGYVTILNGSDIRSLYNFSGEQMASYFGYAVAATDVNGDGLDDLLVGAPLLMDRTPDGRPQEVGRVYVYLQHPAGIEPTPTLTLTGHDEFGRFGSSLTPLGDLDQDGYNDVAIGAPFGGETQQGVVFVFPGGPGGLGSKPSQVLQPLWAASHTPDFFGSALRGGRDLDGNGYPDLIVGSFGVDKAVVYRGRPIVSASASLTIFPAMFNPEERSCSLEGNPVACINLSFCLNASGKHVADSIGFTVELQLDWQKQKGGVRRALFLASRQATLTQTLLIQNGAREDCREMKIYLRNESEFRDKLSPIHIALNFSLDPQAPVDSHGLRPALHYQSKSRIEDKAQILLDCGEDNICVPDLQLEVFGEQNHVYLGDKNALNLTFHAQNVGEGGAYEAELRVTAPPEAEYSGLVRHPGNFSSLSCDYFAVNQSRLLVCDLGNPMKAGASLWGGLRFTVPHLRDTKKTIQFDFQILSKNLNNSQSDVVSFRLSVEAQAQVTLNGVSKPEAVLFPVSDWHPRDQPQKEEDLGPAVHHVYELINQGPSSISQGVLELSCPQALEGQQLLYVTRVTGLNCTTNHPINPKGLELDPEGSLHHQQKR
T1 sequence (P08648 895-1049 partner limits assumed): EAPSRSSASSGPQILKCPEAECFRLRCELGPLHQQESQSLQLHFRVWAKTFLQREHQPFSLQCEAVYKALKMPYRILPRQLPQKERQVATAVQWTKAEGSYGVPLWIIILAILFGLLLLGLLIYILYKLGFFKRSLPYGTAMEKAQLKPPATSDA
T1 sequence (P05556 21-798): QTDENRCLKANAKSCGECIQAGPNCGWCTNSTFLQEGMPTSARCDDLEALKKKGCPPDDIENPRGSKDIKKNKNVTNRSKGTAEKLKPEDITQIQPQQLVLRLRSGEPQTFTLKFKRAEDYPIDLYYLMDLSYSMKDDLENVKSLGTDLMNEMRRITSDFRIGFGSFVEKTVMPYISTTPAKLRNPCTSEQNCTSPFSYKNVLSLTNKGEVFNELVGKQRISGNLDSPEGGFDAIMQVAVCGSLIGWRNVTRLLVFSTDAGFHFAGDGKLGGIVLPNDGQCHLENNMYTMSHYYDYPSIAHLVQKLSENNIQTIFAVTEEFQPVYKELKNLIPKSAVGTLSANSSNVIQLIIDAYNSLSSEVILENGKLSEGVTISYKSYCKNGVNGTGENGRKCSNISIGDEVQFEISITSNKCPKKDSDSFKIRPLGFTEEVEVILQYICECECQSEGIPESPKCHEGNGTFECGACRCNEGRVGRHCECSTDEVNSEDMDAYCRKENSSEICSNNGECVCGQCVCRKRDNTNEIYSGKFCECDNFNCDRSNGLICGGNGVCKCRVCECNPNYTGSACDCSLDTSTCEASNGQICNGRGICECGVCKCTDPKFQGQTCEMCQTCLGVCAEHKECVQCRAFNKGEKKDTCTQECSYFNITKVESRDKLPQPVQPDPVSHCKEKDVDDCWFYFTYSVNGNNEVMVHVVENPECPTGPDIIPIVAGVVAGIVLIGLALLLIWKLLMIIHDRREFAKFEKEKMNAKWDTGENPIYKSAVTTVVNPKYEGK
Description: (§8) Integrin αVβ3 and α5β1 receptor purified from human placenta were obtained from Chemicon International. Platelet integrin αIIbβ3 was purified from platelets according to established procedures. Receptors were coated (100 μl/well) on Costar (3590) high capacity binding plates overnight at 4° C. Coating solution was discarded and plates were washed once with blocking/binding (B/B) buffer (50 mM Tris HCl, pH 7.4, 100 mM NaCl, 2 mM CaCl, 1 mM MgCl2, 1 mM MnCl2 and 1% BSA).
(§9) One hundred ten microliters of B/B buffer was applied for 60 min at RT. Thirty μl of biotinylated extracellular matrix protein ligand (fibronectin for integrin α5β1, vitronectin for integrin αVβ3 and fibrinogen for integrin αIIbβ3) plus 50 μl of either SJ749 in B/B buffer or B/B buffer alone were added to each well, and incubated for 25 min at RT. Plates were washed twice with B/B buffer and incubated 1 hr at RT, with anti-biotin alkaline phosphatase (100 μl/well) in B/B buffer. Finally, plates were washed twice with B/B followed by the addition of 100 μl of phosphatase substrate (1.5 mg/ml). Reaction was stopped by adding 2N NaOH (25 μl/well), and the developed color was read at 405 nm.

integrin αVβ3 = molecular target: T2, integrin αVβ3 (Homo sapiens, UniProt P05106+P06756); assay: Integrin receptor ligand binding assay (biotinylated vitronectin); conditions: vitronectin as ligand
T2 construct: Integrin αVβ3 and α5β1 receptor purified from human placenta were obtained from Chemicon International; purchased Chemicon International; host or cells: purified from human placenta (natural tissue)
T2 sequence (P06756 31-889 limits assumed): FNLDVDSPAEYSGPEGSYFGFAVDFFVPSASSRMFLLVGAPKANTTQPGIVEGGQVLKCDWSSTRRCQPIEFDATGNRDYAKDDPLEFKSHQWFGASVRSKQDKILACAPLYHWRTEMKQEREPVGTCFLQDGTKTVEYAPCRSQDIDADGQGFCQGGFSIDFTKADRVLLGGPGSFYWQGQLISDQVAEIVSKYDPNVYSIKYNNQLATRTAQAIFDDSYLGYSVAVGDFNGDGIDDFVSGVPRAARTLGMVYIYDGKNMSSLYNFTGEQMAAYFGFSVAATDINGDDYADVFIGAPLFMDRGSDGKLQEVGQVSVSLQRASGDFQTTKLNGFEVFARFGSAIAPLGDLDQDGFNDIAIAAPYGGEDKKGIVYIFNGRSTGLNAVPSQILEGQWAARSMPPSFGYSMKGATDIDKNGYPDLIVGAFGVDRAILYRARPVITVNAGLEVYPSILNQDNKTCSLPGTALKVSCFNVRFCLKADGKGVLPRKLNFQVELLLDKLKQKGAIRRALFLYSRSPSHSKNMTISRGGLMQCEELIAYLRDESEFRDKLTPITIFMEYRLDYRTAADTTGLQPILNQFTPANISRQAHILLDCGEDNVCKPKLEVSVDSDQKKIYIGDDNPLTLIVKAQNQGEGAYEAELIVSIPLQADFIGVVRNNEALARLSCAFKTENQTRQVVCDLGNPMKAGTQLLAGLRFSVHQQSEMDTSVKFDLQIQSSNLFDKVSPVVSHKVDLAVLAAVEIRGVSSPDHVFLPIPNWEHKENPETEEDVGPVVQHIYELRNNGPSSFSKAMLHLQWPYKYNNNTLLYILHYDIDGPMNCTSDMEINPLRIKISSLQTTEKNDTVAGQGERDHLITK
T2 sequence (P06756 891-1048 partner limits assumed): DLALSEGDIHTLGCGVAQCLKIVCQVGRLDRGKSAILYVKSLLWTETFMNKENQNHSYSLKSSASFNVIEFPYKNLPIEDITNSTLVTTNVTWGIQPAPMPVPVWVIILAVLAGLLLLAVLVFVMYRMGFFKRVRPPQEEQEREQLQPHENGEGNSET
T2 sequence (P05106 27-788): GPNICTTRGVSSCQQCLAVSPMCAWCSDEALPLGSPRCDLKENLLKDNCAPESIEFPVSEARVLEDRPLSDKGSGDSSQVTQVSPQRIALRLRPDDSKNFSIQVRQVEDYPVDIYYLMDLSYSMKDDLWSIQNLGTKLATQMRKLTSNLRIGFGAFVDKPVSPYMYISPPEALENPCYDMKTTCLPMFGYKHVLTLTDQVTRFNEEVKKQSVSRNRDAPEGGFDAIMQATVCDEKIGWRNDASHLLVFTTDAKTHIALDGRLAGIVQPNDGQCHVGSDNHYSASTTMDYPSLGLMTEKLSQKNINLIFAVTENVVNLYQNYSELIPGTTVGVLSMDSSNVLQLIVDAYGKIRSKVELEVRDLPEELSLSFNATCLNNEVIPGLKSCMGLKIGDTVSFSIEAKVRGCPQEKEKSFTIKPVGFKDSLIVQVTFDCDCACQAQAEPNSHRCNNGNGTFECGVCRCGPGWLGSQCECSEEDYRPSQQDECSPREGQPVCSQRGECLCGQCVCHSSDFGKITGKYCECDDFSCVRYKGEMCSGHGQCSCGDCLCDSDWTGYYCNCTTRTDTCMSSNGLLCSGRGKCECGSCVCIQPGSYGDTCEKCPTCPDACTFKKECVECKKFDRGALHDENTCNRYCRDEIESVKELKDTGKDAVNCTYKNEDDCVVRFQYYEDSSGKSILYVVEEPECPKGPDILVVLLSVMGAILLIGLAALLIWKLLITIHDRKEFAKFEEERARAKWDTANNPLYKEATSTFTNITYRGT
Description: as §8, §9

[6] = test system: HT29 colon carcinoma cells lacking α5β1 expression; assay: Chick CAM tumor assay, HT29; format: in vivo; conditions: HT29 tumors on CAM
Description: The chick CAM tumor assay was performed by placing ten million tumor cells on the surface of a CAM, and culturing the cells for one week. The resulting tumors were excised and cut into 50 mg fragments. […] Forty-eight hours later, CAM's were excised from the egg and the number of blood vessels entering the tumors were counted (as vessel branch points).
Data was presented as mean blood vessel number per treatment group (+/− standard error of measurement). Each treatment group incorporated at least ten tumors per experiment. Representative tumors were photographed at 10× magnification. Tumors were excised from the egg and tumor weights were determined for each tumor Data was presented as mean tumor weight per treatment group (+/− standard error of measurement). Statistical analyses were performed using Student's t-test.
HT29 colon carcinoma cells lacking α5β1 expression were grown on the CAM's of 10-day old embryos. These tumor cells secrete several angiogenic growth factors, including VEGF, TGFα, TGFβ, TNFα, and IL-8 (Anzano et al., Cancer Res. 49:2898–2904 (1989); Varner et. al., supra, 1995; Ellis et al., J. Biol. Chem. 273:1052–1057 (1998)). Integrin α5β1 negative tumor cells were used to distinguish the potential anti-tumor effects from anti-vasculature effects of integrin α5β1 antagonists.

[7] = test system: growth factor-induced angiogenesis in chick embryos; assay: Chick CAM angiogenesis assay, systemic administration, growth factor not specified; format: in vivo; conditions: chick embryo, read-out: amount inhibiting angiogenesis by 50% (converted)
Source text: Ten day old embryonated chicken eggs (McIntyre Poultry; Ramona Calif.) were candled to illuminate blood vessels under the shell and an area with a minimum of small blood vessels is identified. The CAM was dropped away from the eggshell in this area by grinding a small hole in the mineralized shell and applying pressure to the underlying inner shell membrane. This procedure caused an air pocket to shift from the wide end of the egg to the identified area and forcing a circular region of the CAM approximately 2 cm in diameter to drop away from the shell. […]
Fibronectin, vitronectin and fibronectin fragments (59 pmol in a final volume of 25 μl) were applied to stimulated or unstimulated CAM's. […] Blood vessel branch points in the 5 mm filter disk area were counted at 30× magnification in a blinded fashion as a size-independent quantitative indicator of vascular sprouting in response to growth factors. […] Thus, counting of blood vessel branch points is a useful quantitative means of obtaining an angiogenic index (Brooks et al., In “Methods in Molecular Biology” (Humana Press 1999). At least ten embryos were used per treatment group. Each experiment was performed a minimum of three times.
Data was evaluated in terms of average number of blood vessel branch points per treatment group +/−standard error of measurement . […]

| Compound | effect on adhesion to fibronectin (α5^+ HT29 cells) | effect on adhesion to fibronectin [1] | effect on adhesion to fibronectin [2] | effect on cell attachment to vitronectin [3] | effect on endothelial cell migration on fibronectin (HUVEC's) | effect on bFGF-induced angiogenesis [4] | effect on VEGF angiogenesis [5] | effect on ligand binding to α5β1 (integrin α5β1) | effect on ligand binding to αVβ3 and other integrins (integrin αVβ3) | effect on tumor size [6] | IC50 [7] [nM] |
| --- | --- | --- | --- | --- | --- | --- | --- | --- | --- | --- | --- |
| Cc1cc(C)c(S(=O)(=O)N[C@@H](CNC(=O)C2=NOC3(C2)CC(CNc2ccccn2)N(C(=O)OCc2ccccc2)C3)C(=O)O)c(C)c1 (some centres unmarked) [SJ749] | inhibitory effect | blocked | blocked | ineffective | highly effective | blocked; also recorded: dose dependent inhibitory effect; also recorded: reduced or inhibited angiogenesis in a dose dependent manner | did not block | selectively inhibited; also recorded: interfered | substantially less effective | induced tumor regression | 7.5 |
| CATAERWRC ["scrambled" control peptide] | little effect | little effect | little effect | little effect |  | did not inhibit |  |  |  | continued to increase in size |  |
